{"source": "patent EP4279068A1", "about": "“COMPOSITION COMPRISING A COMBINATION OF CAPSAICIN AND/OR PHENYLCAPSAICIN AND ASTAXANTHIN FOR THE PREVENTION AND TREATMENT OF INFLAMMATORY-BASED SKIN DISEASES, IN PARTICULAR ASSOCIATED WITH SKIN AGING” (Safi Medical Care s.r.l., priority 2022, dated 2023)", "key": {"[1]": {"system": "NF-kβ p65", "test": "NF-kβ p65 DNA-binding activity, TransAM p65 ELISA kit, in LPS-stimulated macrophages", "format": "cell-based, rats", "settings": "500 ng/ml LPS, 15 µm, 12 hours, Fig. 4", "description": "(§1) To evaluate the ability of the synergistic composition of the invention to inhibit the NF-kβ activity in macrophages of rats, we used the DNA-binding activity assay of NF-kβ p65 by ELISA kit for TransAM p65 transcription factor (Active Motif, Carlsbad, CA). The cells were stimulated with 500 ng/ml of LPS in the presence and absence of 15 µm of CAP, 15 µm of ASX or a 15 µm combination of CAP + ASX, for 12 hours, according to the invention. Then, the DNA-binding activity of NF-kβ p65 was determined. 12 hours thereafter LPS stimulation markedly promoted the DNA-binding activity of NF-kβ p65 and the expression of proinflammatory cytokines IL-1β, IL-6, and TNF-α. […] Consistently, similar effects were shown in terms of cytokine expression (Figure 5). An immortalized macrophage cell line was used. The cells were pretreated or not for 1 hr with 15 µm of CAP, 15 µm of ASX or 15 µm of CAP+ASX, and then exposed to 500 ng/ml of LPS for another 24 hrs. IL-1b, IL-6 and TNF-a were detected by ELISA kit purchased from Abcam, Cambridge, (MA) USA. The data are expressed as mean ±SEM, n = 4; *p < 0.001 vs. LPS, **p < 0.001 vs. CAP or ASX alone."}, "[2]": {"system": "HO-1", "test": "HO-1 mRNA expression by quantitative real-time PCR in cultured human fibroblasts", "format": "cell-based", "settings": "human immortalized ATCC fibroblasts, peak at 15 µM", "description": "The human immortalized ATCC fibroblasts were exposed for 6 hrs to different concentrations of CAP, ASX, or of a combination of the two compounds (5, 10, 15, and 30 µM). […] ASX causes a dose-dependent increase in HO-1 mRNA, measured relative to the non-inducible HO-2 paralog gene, which peaks (approximately 6-fold) at 15 µM) and subsequently decreases to 30 µM. […] To confirm that the HO-1 gene expression measured at the mRNA level corresponded to an equivalent increase in the heme oxygenase activity, this activity was measured at the same doses of CAP and ASX 6 and 24 hours after administration. […] The results highlight the synergistic activity of CAP and ASX in the ability to activate HO-1 gene expression. In order to determine the best ratio between the two compounds we evaluated using the same experimental model, different proportion of the two compounds at the final concentration of 15 µM (CAP/ASX 1:2, 1:1, 2:1)."}, "[3]": {"system": "Nrf2", "test": "Nrf2 protein expression in nuclear extracts by Western blot", "format": "cell-based", "settings": "cultured human fibroblasts, final concentration 15 µM, 1 hr up to 12 hrs, Figure 3", "description": "The cultured human fibroblasts were exposed to CAP, ASX or to a combination of the two compounds at the final concentration of 15 µM to evaluate the Nrf2 protein expression over time. […] The […] were washed twice with PBS 1X. The cells were then harvested in 1 ml of 1X PBS and centrifuged at 3000 rpm for 3 min at 4 °C. The cell pellet was carefully resuspended in […] of cold buffer containing 10 mM of HEPES (pH 7.9), 10 mM of KCl, 0.1 mM of EDTA, 0.1 mM of EGTA, 1 µM of DTT, and cocktail complete with protease inhibitors (Roche, Mannheim, Germany). The pellet was then incubated on ice for 15 min to allow the cells to swell. After this time, 15 µl of 10% NP-40 were added and the tube was mixed with vortex for 10 s. The homogenate was then centrifuged at 3000 rpm for 3 min at 4 °C and the nuclear pellet was resuspended in 30 µl of cold buffer consisting of 20 mM of HEPES (pH 7.9), 0.4 M of NaCl, 1 mM of EDTA, 1 mM of EGTA, 1 µM of DTT and protease inhibitors. The pellet was then incubated on ice for 15 min and vortexed for 10 - 15 s every 2 min. The nuclear extract was finally centrifuged at 13,000 rpm for 5 min at 4 °C. The supernatant containing the nuclear proteins was broken down by SDS-polyacrylamide gel and subjected to immunoblot analysis using anti-Nrf2 (1:500 dilution) and anti-Sp1 (1:500 dilution) antibodies."}, "[4]": {"system": "IL-1β, IL-6 and TNF-α", "test": "Inflammatory cytokine secretion by ELISA in LPS-stimulated macrophages", "format": "cell-based", "settings": "macrophages pretreated 1 hr with 15 µm, then 500 ng/ml LPS for 24 hrs, Figure 5", "description": "as §1"}}}
{"smiles": "CC1=C(/C=C/C(C)=C/C=C/C(C)=C/C=C/C=C(C)/C=C/C=C(C)/C=C/C2=C(C)C(=O)C(O)CC2(C)C)C(C)(C)CC(O)C1=O", "note": "(stereo not drawn) [ASX, 3,3'-dihydroxy-β-carotene-4,4'-dion]", "values": [{"measurement": "DNA-binding activity of NF-kβ p65", "setting": "[1]", "value": "lower DNA-binding activity"}, {"measurement": "increase in HO-1 mRNA, measured relative to the non-inducible HO-2 paralog gene", "setting": "[2]; 6 hrs exposure", "value": "approximately 6 fold"}, {"measurement": "Nrf2 protein expression in the nuclear extracts", "setting": "[3]", "value": "significantly increased"}, {"measurement": "LPS-stimulated cytokine secretion (IL-1β, IL-6 and TNF-α)", "setting": "[4]", "value": "significantly reduced"}]}
{"smiles": "COc1cc(CNC(=O)CCCC/C=C/C(C)C)ccc1O", "note": "[CAP, (E)-N-(4-hydroxy-3-methoxybenzyl) -8-methylnon-6-enamide]", "values": [{"measurement": "DNA-binding activity of NF-kβ p65", "setting": "[1]", "value": "lower DNA-binding activity"}, {"measurement": "HO-1 gene expression (HO-1 mRNA), result in words", "setting": "[2]; 6 hrs, 5, 10, 15 and 30 µM", "value": "slightly less active"}, {"measurement": "Nrf2 protein expression in the nuclear extracts", "setting": "[3]", "value": "lower increase"}, {"measurement": "LPS-stimulated cytokine secretion (IL-1β, IL-6 and TNF-α)", "setting": "[4]", "value": "significantly reduced"}]}
